Assay results from patent US10112943B2, “Substituted imidazoles as gamma secretase modulators” (Janssen Pharmaceutica NV, priority 2012, dated 2018).

Tests used:
γ-secretase [1] = target: T1, γ-secretase (Homo sapiens, UniProt P49768); assay: Screening for γ-secretase-modulating activity: Aβ42 in cell supernatant (Alphalisa sandwich immuno-assay); assay type: cell-based; settings: SKNBE2 human neuroblastoma cells carrying hAPP 695-wild type, overnight incubation
T1 construct: endogenous in cells; host or cells: SKNBE2 human neuroblastoma cells carrying hAPP 695 wild type
Method: (§1) A) Screening of the Compounds of the Invention for γ-Secretase-Modulating Activity
(§2) Screening was carried out using SKNBE2 human neuroblastoma cells carrying the hAPP 695-wild type, grown in Dulbecco's Modified Eagle's Medium/Nutrient mixture F-12 (DMEM/NUT-mix F-12) (HAM) provided by Invitrogen (cat no. 10371-029) containing 5% Serum/Fe supplemented with 1% non-essential amino acids, 1-glutamine 2 mM, Hepes 15 mM, penicillin 50 U/ml (units/ml) and streptomycin 50 μg/ml. Cells were grown to near confluency.
(§3) The screening was performed using a modification of the assay as described in Citron et al (1997) Nature Medicine 3: 67. Briefly, cells were plated in a 384-well plate at 10^4 cells/well in Ultraculture (Lonza, BE12-725F) supplemented with 1% glutamine (Invitrogen, 25030-024), 1% non-essential amino acid (NEAA), penicillin 50 U/ml en streptomycin 50 μg/ml in the presence of test compound at different test concentrations. The cell/compound mixture was incubated overnight at 37° C., 5% CO2. The next day the media were assayed by two sandwich immuno-assays, for Aβ42 and Aβtotal.
(§4) Aβtotal and Aβ42 concentrations were quantified in the cell supernatant using the Aphalisa technology (Perkin Elmer). Alphalisa is a sandwich assay using biotinylated antibody attached to streptavidin coated donorbeads and antibody conjugated to acceptor beads. In the presence of antigen, the beads come into close proximity. The excitation of the donor beads provokes the release of singlet oxygen molecules that trigger a cascade of energy transfer in the acceptor beads, resulting in light emission. To quantify the amount of Aβ42 in the cell supernatant, monoclonal antibody specific to the C-terminus of Aβ42 (JRF/cAβ42/26) was coupled to the receptor beads and biotinylated antibody specific to the N-terminus of Aβ (JRF/AβN/25) was used to react with the donor beads. To quantify the amount of Aβtotal in the cell supernatant, monoclonal antibody specific to the N-terminus of Aβ (JRF/AβN/25) was coupled to the receptor beads and biotinylated antibody specific to the mid region of Aβ (biotinylated 4G8) was used to react with the donor beads.
To obtain the values reported in Table 3, the data are calculated as percentage of the maximum amount of amyloid Beta 42 measured in the absence of the test compound.
(§5) The sigmoidal dose response curves were analyzed using non-linear regression analysis with percentage of the control plotted against the log concentration of the compound. A 4-parameter equation was used to determine the IC50.

γ-secretase [2] = target: T1, γ-secretase; assay: Screening for γ-secretase-modulating activity: Aβtotal in cell supernatant (Alphalisa sandwich immuno-assay); assay type: cell-based; settings: SKNBE2 human neuroblastoma cells carrying hAPP 695-wild type, overnight incubation
Method: as §1, §2, §3, §4, §5

Row | Structure (SMILES) | IC50 (γ-secretase [1]) [µM] | IC50 (γ-secretase [2]) [µM] | melting point [°C]
1 | Cc1cn(-c2ccc3n(c2=O)C[C@@H]2CC[C@H](c4cc(C(F)(F)F)cc(C(F)(F)F)c4)N2C3=O)cn1 [Compound 18, (3R,11aS)-3-[3,5-bis(trifluoromethyl)phenyl]-2,3,11,11a-tetrahydro-8-(4-methyl-1H-imidazol-1-yl)-1H-pyrido[1,2-a]pyrrolo[1,2-d]pyrazine-5,9-dione] | > 10 | > 10 | –
2 | Cc1cn(-c2ccc3n(c2=O)CC2CCC(Cc4cc(C(F)(F)F)cc(C(F)(F)F)c4)N2C3=O)cn1 (stereo not drawn) [Compound 1, 3-[[3,5-bis(trifluoromethyl)phenyl]methyl]-2,3,11,11a-tetrahydro-8-(4-methyl-1H-imidazol-1-yl)-1H-pyrido[1,2-a]pyrrolo[1,2-d]pyrazine-5,9-dione] | 0.16 | > 10 | 234.89
3 | Cc1cn(-c2ccc3n(c2=O)C[C@@H]2CC[C@H](Cc4cc(C(F)(F)F)cc(C(F)(F)F)c4)N2C3=O)cn1 (single isomer, unassigned) [Compound 5, 3-[[3,5-bis(trifluoromethyl)phenyl]methyl]-2,3,11,11a-tetrahydro-8-(4-methyl-1H-imidazol-1-yl)-1H-pyrido[1,2-a]pyrrolo[1,2-d]pyrazine-5,9-dione ((3R, 11aS) or (3S, 11aR))] | 0.98 | > 10 | 238.34
4 | Cc1cn(-c2ccc3n(c2=O)C[C@@H]2CC[C@@H](Cc4cc(C(F)(F)F)cc(C(F)(F)F)c4)N2C3=O)cn1 (single isomer, unassigned) [Compound 2, 3-[[3,5-bis(trifluoromethyl)phenyl]methyl]-2,3,11,11a-tetrahydro-8-(4-methyl-1H-imidazol-1-yl)-1H-pyrido[1,2-a]pyrrolo[1,2-d]pyrazine-5,9-dione ((3R, 11aR) or (3S, 11aS))] | > 10 | > 10 | 255.25
5 | Cc1cn(-c2ccc3n(c2=O)C[C@@H]2CCC[C@@H](Cc4cc(C(F)(F)F)cc(C(F)(F)F)c4)N2C3=O)cn1 (single isomer, unassigned) [Compound 10, 10-[[3,5-bis(trifluoromethyl)phenyl]methyl]-6,6a,7,8,9,10-hexahydro-3-(4-methyl-1H-imidazol-1-yl)-dipyrido[1,2-a:1′,2-d]pyrazine-4,12-dione ((6aS, 10S) or (6aR, 10R))] | 0.13 | 3.16 | 231.74
6 | Cc1cn(-c2ccc3n(c2=O)C[C@H]2CC[C@@H](c4cc(C(F)(F)F)cc(C(F)(F)F)c4)N2C3=O)cn1 [Compound 19, (3S,11aR)-3-[3,5-bis(trifluoromethyl)phenyl]-2,3,11,11a-tetrahydro-8-(4-methyl-1H-imidazol-1-yl)-1H-pyrido[1,2-a]pyrrolo[1,2-d]pyrazine-5,9-dione] | 0.72 | > 10 | –
7 | Cc1cn(-c2ccc3n(c2=O)C[C@@H]2CCC[C@H](c4cc(C(F)(F)F)cc(C(F)(F)F)c4)N2C3=O)cn1 (single isomer, unassigned) [Compound 12, 10-[3,5-bis(trifluoromethyl)phenyl]-6,6a,7,8,9,10-hexahydro-3-(4-methyl-1H-imidazol-1-yl)-dipyrido[1,2-a: 1′,2′-d]pyrazine-4,12-dione ((6aR, 10S) or (6aS, 10R))] | 0.24 | > 10 | –
8 | Cc1cn(-c2ccc3n(c2=O)C[C@@H]2CCC[C@H](c4cc(C(F)(F)F)cc(C(F)(F)F)c4)N2C3=O)cn1 (single isomer, unassigned) [Compound 13, 10-[3,5-bis(trifluoromethyl)phenyl]-6,6a,7,8,9,10-hexahydro-3-(4-methyl-1H-imidazol-1-yl)-dipyrido[1,2-a: 1′,2′-d]pyrazine-4,12-dione ((6aS, 10R) or (6aR, 10S)] | > 10 | – | –
9 | Cc1cn(-c2ccc3n(c2=O)C[C@@H]2CCC[C@H](Cc4cc(C(F)(F)F)cc(C(F)(F)F)c4)N2C3=O)cn1 (single isomer, unassigned) [Compound 9, 10-[[3,5-bis(trifluoromethyl)phenyl]methyl]-6,6a,7,8,9,10-hexahydro-3-(4-methyl-1H-imidazol-1-yl)-dipyrido[1,2-a:1′,2-d]pyrazine-4,12-dione ((6aR, 10S) or (6aS, 10R))] | 0.29 | > 10 | 246.53
10 | Cc1cn(-c2ccc3n(c2=O)C[C@@H]2CCC[C@@H](Cc4cc(C(F)(F)F)cc(C(F)(F)F)c4)N2C3=O)cn1 (single isomer, unassigned) [Compound 7, 10-[[3,5-bis(trifluoromethyl)phenyl]methyl]-6,6a,7,8,9,10-hexahydro-3-(4-methyl-1H-imidazol-1-yl)-dipyrido[1,2-a:1′,2′-d]pyrazine-4,12-dione ((6aR, 10R) or (6aS, 10S))] | 1.12 | > 10 | 231.07
11 | Cc1cn(-c2ccc3n(c2=O)C[C@@H]2CC[C@@H](c4cc(C(F)(F)F)cc(C(F)(F)F)c4)N2C3=O)cn1 [Compound 16, (3S,11aS)-3-[3,5-bis(trifluoromethyl)phenyl]-2,3,11,11a-tetrahydro-8-(4-methyl-1H-imidazol-1-yl)-1H-pyrido[1,2-a]pyrrolo[1,2-d]pyrazine-5,9-dione] | 0.19 | > 10 | –
12 | Cc1cn(-c2ccc3n(c2=O)C[C@H]2CC[C@@H](c4ccc(Cl)c(Cl)c4)N2C3=O)cn1 [Compound 21, (3S,11aR)-3-(3,4-dichlorophenyl)-2,3,11,11a-tetrahydro-8-(4-methyl-1H-imidazol-1-yl)-1H-pyrido[1,2-a]pyrrolo[1,2-d]pyrazine-5,9-dione] | 1.32 | > 15.1 | –
13 | Cc1cn(-c2ccc3n(c2=O)C[C@@H]2CCC[C@H](Cc4cc(C(F)(F)F)cc(C(F)(F)F)c4)N2C3=O)cn1 (single isomer, unassigned) [Compound 8, 10-[[3,5-bis(trifluoromethyl)phenyl]methyl]-6,6a,7,8,9,10-hexahydro-3-(4-methyl-1H-imidazol-1-yl)-dipyrido[1,2-a:1′,2-d]pyrazine-4,12-dione ((6aS, 10R) or (6aR, 10S))] | 0.11 | > 10 | 247.06
14 | Cc1cn(-c2ccc3n(c2=O)C[C@H]2CC[C@H](c4cc(C(F)(F)F)cc(C(F)(F)F)c4)N2C3=O)cn1 [Compound 15, (3R,11aR)-3-[3,5-bis(trifluoromethyl)phenyl]-2,3,11,11a-tetrahydro-8-(4-methyl-1H-imidazol-1-yl)-1H-pyrido[1,2-a]pyrrolo[1,2-d]pyrazine-5,9-dione] | 4.57 | > 10 | –
15 | Cc1cn(-c2ccc3n(c2=O)C[C@@H]2CC[C@H](Cc4cc(C(F)(F)F)cc(C(F)(F)F)c4)N2C3=O)cn1 (single isomer, unassigned) [Compound 3, 3-[[3,5-bis(trifluoromethyl)phenyl]methyl]-2,3,11,11a-tetrahydro-8-(4-methyl-1H-imidazol-1-yl)-1H-pyrido[1,2-a]pyrrolo[1,2-d]pyrazine-5,9-dione ((3S, 11aR) or (3R, 11aS))] | 0.42 | > 10 | 241.17
16 | Cc1cn(-c2ccc3n(c2=O)C[C@H]2CC[C@H](c4ccc(Cl)c(Cl)c4)N2C3=O)cn1 [Compound 20, (3R,11aR)-3-(3,4-dichlorophenyl)-2,3,11,11a-tetrahydro-8-(4-methyl-1H-imidazol-1-yl)-1H-pyrido[1,2-a]pyrrolo[1,2-d]pyrazine-5,9-dione] | 4.47 | 9.33 | –
